Measured values taken from patent US6489469B1, “Method for storing or transporting erythritol solution” (Nikken Chemicals Co., Ltd., priority 1999, dated 2002).

Tested on: Staphylococcus aureus IFO 13276
Experiment: Viable Count of Staphylococcus aureus IFO 13276 in Erythritol Solution
Type: cell-based
Protocol: Erythritol solutions of respective concentrations in the range of from 30 to 60% were prepared. To these were inoculated Staphylococcus aureus IFO 13276, Bacillus subtilis IFO 3134, and Escherichia coli IFO 3972 as bacteria, Candida albicans IFO 1549 and Saccharomyces cerevisiae ATCC 9763 as yeasts, Aspergillus niger IFO 6342, Aspergillus flavus IFO 6343, and Penicillium funiculosum IFO 6345 as fungi, respectively, in a population (concentration) of 10,000 cells/mL or more. After the inoculation, the solutions were stored at 30, 37, 45, 50, or 60° C., respectively, for 56 days and the number of viable cell was determined daily. The determination of the number of viable cell was performed by a method of coating 0.1 mL of appropriately diluted sample cultivation on an agar plate and cultivating and counting the number of viable cell (the number of colony) that grew after the cultivation.

Which results are given for OC[C@@H](O)[C@@H](O)CO [Erythritol Solution, erythritol]?
The Number of Viable Cell (30° C., 30% w/w, Day 0): 10000 or more cells/mL; The Number of Viable Cell (30° C., 30% w/w, Day 3): 20400 cells/mL; The Number of Viable Cell (30° C., 30% w/w, Day 7): 11100 cells/mL; The Number of Viable Cell (30° C., 30% w/w, Day 14): 360 cells/mL; The Number of Viable Cell (30° C., 30% w/w, Day 28): 0 cells/mL; The Number of Viable Cell (30° C., 30% w/w, Day 56): 0 cells/mL; The Number of Viable Cell (30° C., 40% w/w, Day 0): 10000 or more cells/mL; The Number of Viable Cell (30° C., 40% w/w, Day 3): 8380 cells/mL; The Number of Viable Cell (30° C., 40% w/w, Day 7): 6200 cells/mL; The Number of Viable Cell (30° C., 40% w/w, Day 14): 4200 cells/mL; The Number of Viable Cell (30° C., 40% w/w, Day 28): 0 cells/mL; The Number of Viable Cell (30° C., 40% w/w, Day 56): 0 cells/mL; The Number of Viable Cell (45° C., 30% w/w, Day 0): 10000 or more cells/mL; The Number of Viable Cell (45° C., 30% w/w, Day 3): 0 cells/mL; The Number of Viable Cell (45° C., 30% w/w, Day 7): 0 cells/mL; The Number of Viable Cell (45° C., 30% w/w, Day 14): 0 cells/mL; The Number of Viable Cell (45° C., 30% w/w, Day 28): 0 cells/mL; The Number of Viable Cell (45° C., 30% w/w, Day 56): 0 cells/mL; The Number of Viable Cell (45° C., 40% w/w, Day 0): 10000 or more cells/mL; The Number of Viable Cell (45° C., 40% w/w, Day 3): 0 cells/mL; The Number of Viable Cell (45° C., 40% w/w, Day 7): 0 cells/mL; The Number of Viable Cell (45° C., 40% w/w, Day 14): 0 cells/mL; The Number of Viable Cell (45° C., 40% w/w, Day 28): 0 cells/mL; The Number of Viable Cell (45° C., 40% w/w, Day 56): 0 cells/mL; The Number of Viable Cell (45° C., 50% w/w, Day 0): 10000 or more cells/mL; The Number of Viable Cell (45° C., 50% w/w, Day 3): 0 cells/mL; The Number of Viable Cell (45° C., 50% w/w, Day 7): 0 cells/mL; The Number of Viable Cell (45° C., 50% w/w, Day 14): 0 cells/mL; The Number of Viable Cell (45° C., 50% w/w, Day 28): 0 cells/mL; The Number of Viable Cell (45° C., 50% w/w, Day 56): 0 cells/mL; The Number of Viable Cell (50° C., 30% w/w, Day 0): 10000 or more cells/mL; The Number of Viable Cell (50° C., 30% w/w, Day 3): 0 cells/mL; The Number of Viable Cell (50° C., 30% w/w, Day 7): 0 cells/mL; The Number of Viable Cell (50° C., 30% w/w, Day 14): 0 cells/mL; The Number of Viable Cell (50° C., 30% w/w, Day 28): 0 cells/mL; The Number of Viable Cell (50° C., 30% w/w, Day 56): 0 cells/mL; The Number of Viable Cell (50° C., 40% w/w, Day 0): 10000 or more cells/mL; The Number of Viable Cell (50° C., 40% w/w, Day 3): 0 cells/mL; The Number of Viable Cell (50° C., 40% w/w, Day 7): 0 cells/mL; The Number of Viable Cell (50° C., 40% w/w, Day 14): 0 cells/mL; The Number of Viable Cell (50° C., 40% w/w, Day 28): 0 cells/mL; The Number of Viable Cell (50° C., 40% w/w, Day 56): 0 cells/mL; The Number of Viable Cell (50° C., 50% w/w, Day 0): 10000 or more cells/mL; The Number of Viable Cell (50° C., 50% w/w, Day 3): 0 cells/mL; The Number of Viable Cell (50° C., 50% w/w, Day 7): 0 cells/mL; The Number of Viable Cell (50° C., 50% w/w, Day 14): 0 cells/mL; The Number of Viable Cell (50° C., 50% w/w, Day 28): 0 cells/mL; The Number of Viable Cell (50° C., 50% w/w, Day 56): 0 cells/mL; growth of the microbes (temperature of 50° C. or more): prevented from growing; time after which microbes died (temperature of 50° C. or more): 3 days
